Measurements: patent US9096615B2, “Bridged bicyclic amino thiazine dioxide compounds as inhibitors of beta-secretase and methods of use thereof” (AMGEN INC., priority 2013, dated 2015)
Where two headings read alike, the source gives them in different places.

Assays:
BACE1 = BACE1 (Homo sapiens, UniProt P56817); experiment: In vitro enzymatic BACE FRET assay; type: biochemical
Description: In Vitro Enzymatic BACE FRET (Fluorescence Resonance Energy Transfer) Assay
Enzyme Assay Data in the Example Table I
The assay buffer used in this screen is 0.05 M acetate, pH 4.2, 10% DMSO final, 100 uM genapol (which is a nonionic detergent, below its Critical Micelle Concentration). The Beta Secretase enzyme (0.2 nM) is pre-incubated for one hour with inhibitors, typically in about 1 uL of DMSO according to a serial dilution, are added thereto. This assay is effectively started by the addition of FRET substrate (50 nM) and the combination is incubated for one hour. The FRET assay is terminated with by addition of Tris buffer, which raises the pH to neutrality, and the fluorescence is determined. The FRET substrate is a peptide with commercially available fluorophore and quencher, on opposite sides of the BACE cleavage site. Proteolytic cleavage of the FRET substrate releases quenching of fluorescence (excitation 488 nm and […]).

[1] = test system: Aβ40 in conditioned medium of cells stably expressing Amyloid Precursor Protein (APP); experiment: In vitro BACE cell-based assay (HEK cell assay, Aβ40 sandwich ELISA); details: Homo sapiens, HEK293
Description: In Vitro BACE Cell-Based Assay
The cell-based assay measures inhibition or reduction of Aβ40 in conditioned medium of test compound treated cells expressing amyloid precursor protein.
Cells stably expressing Amyloid Precursor Protein (APP) were plated at a density of 40K cells/well in 96 well plates (Costar). The cells were cultivated for 24 hours at 37° C. and 5% CO2 in DMEM supplemented with 10% FBS. The test compounds were then added to cells in 10-point dose response concentrations with the starting concentration being either 100 μM or 10 μM. The compounds were diluted from stock solutions in DMSO and the final DMSO concentration of the test compounds on cells was 0.1%. After 24 h of incubation with the test compounds the supernatant conditioned media was collected and the Aβ 40 levels were determined using a sandwich ELISA. The IC50 of the compound was calculated from the percent of control or percent inhibition of Aβ 40 as a function of the concentration of the test compound.
The sandwich ELISA to detect Aβ 40 was performed in 96 well microtiter plates, which were pre-treated with goat anti-rabbit IgG (Pierce). The capture and detecting antibody pair that were used to detect Aβ 40 from cell supernatants were affinity purified pAb40 (Biosource) and biotinylated 6E10 (Signet Labs Inc.), respectively. The optimal concentration for the pAb40 antibody was 3 μg/ml in Superblock/TBS (Pierce) that was supplemented with 0.05% Tween 20 (Sigma). Optimal concentration for the detection antibody 6E10-biotinylated was 0.5 μg/ml in Superblock/TBS (Pierce) that had been supplemented with 2% normal goat serum and 2% normal mouse serum.
Cellular supernatants were incubated with the capture antibody for 3 h at 4° C., followed by 3 wash steps in TBS-tween (0.05%). The detecting antibody incubation was for 2 h at 4° C., again followed by the wash steps as described previously. The final readout of the ELISA is Time-Resolved Fluorescence (counts per minute) using Delfia reagents Streptavidin-Europium and Enhancement solutions (Perkin Elmer) and the Victor 2 multilabel counter (Perkin Elmer).

Cathepsin D (Cat D) = biological target: T1, Cathepsin D (Cat D) (Homo sapiens, UniProt P07339); experiment: In vitro enzymatic Cathepsin D (Cat D) FRET assay; type: biochemical; details: read-out: CatD IC50
T1 construct: made in house; host or cells: CHO cells
Description: In Vitro Enzymatic Cathepsin D (Cat D) FRET (Fluorescence Resonance Energy Transfer) Assay
Recombinant Cat D was expressed in CHO cells. The assay buffer for CathepsinD is 0.05 M citrate pH 3.5, 10% DMSO final, 5 mM CHAPS. The Cat D enzyme (9 nM) is pre-incubated for one hour with inhibitors, typically in about 1 uL of DMSO according to a serial dilution, is added thereto. The assays are effectively started by the addition of different FRET substrates (20 nM for Cat D) and the combination is incubated for one hour. The FRET assay is terminated with by addition of Tris buffer, which raises the pH to neutrality, and the fluorescence is determined. The FRET substrate is a peptide with commercially available fluorophore and quencher, on opposite sides of the BACE cleavage site. The Cat D substrate peptide sequence is based on sequence #1 of Table 1 from Gulnik et al. FEBS Letters v413 p 379-384 1997. Proteolytic cleavage of the FRET substrate releases quenching of fluorescence (Cat D excitation 500 nm and emission 580 nm). […]
Where available, the in-vitro Cat D FRET assay data for each of the Examples, conducted by the first procedure, is provided in Tables 1 and 3. For example, the compound of example 28 has a Cat D IC50 value of >400 uM.

[2] = read-out: BACE1 FRET assay IC50
[3] = Aβ40, 24 h incubation, read-out: HEK cell assay IC50
[4] = average IC50, read-out: BACE1 Enzyme assay IC50
[5] = average IC50, read-out: BACE1 cell assay IC50

T1 sequence (P07339 65-412, species assumed): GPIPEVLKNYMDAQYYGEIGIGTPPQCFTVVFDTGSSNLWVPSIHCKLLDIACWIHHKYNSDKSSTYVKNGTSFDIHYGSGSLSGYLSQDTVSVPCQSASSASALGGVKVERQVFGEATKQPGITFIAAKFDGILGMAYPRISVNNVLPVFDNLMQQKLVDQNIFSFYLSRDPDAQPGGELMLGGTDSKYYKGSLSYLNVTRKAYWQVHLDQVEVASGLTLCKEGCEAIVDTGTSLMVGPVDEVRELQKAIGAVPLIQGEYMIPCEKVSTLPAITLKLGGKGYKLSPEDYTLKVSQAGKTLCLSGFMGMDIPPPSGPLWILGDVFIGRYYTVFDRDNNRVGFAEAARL
BACE1, sequence (P56817 46-501, species assumed): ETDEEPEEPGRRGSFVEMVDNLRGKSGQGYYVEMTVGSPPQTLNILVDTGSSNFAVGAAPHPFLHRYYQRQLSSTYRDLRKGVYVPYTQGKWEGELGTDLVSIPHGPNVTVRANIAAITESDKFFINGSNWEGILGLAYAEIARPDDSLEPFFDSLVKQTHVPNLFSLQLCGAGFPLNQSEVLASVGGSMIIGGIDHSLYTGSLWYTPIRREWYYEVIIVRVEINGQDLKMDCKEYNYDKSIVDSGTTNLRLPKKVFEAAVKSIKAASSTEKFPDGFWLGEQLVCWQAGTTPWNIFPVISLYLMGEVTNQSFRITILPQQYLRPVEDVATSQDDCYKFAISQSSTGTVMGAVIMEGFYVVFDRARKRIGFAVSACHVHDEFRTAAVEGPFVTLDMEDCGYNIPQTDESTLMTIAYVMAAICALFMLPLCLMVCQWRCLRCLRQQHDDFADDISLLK

SMILES	IC50 (BACE1; [2])	IC50 [1, 3]	IC50 (Cathepsin D (Cat D))	IC50 (BACE1; [4])	IC50 [1, 5]	IC50 (Cathepsin D (Cat D); average IC50, first procedure)
C[C@]12CC[C@H]([C@@](C)(c3cc(NC(=O)c4ccc(C(F)(F)F)cc4F)ccc3F)N=C1N)S2(=O)=O [Example 122, N-(3-((1R,2R,5S)-4-amino-2,5-dimethyl-8,8-dioxido-8-thia-3-azabicyclo[3.2.1]oct-3-en-2-yl)-4-fluorophenyl)-2-fluoro-4-(trifluoromethyl)benzamide]	–	–	–	0.905 µM	0.255 µM	> 400 µM
C[C@]1(c2cc(Nc3nccc4nc(C(F)(F)F)cnc34)ccc2F)N=C(N)[C@@]2(C)CC[C@@H]1S2(=O)=O [Example 86, N-(3-((1S,2R,5R)-4-amino-2,5-dimethyl-8,8-dioxido-8-thia-3-azabicyclo[3.2.1]oct-3-en-2-yl)-4-fluorophenyl)-2-(trifluoromethyl)pyrido[3,4-b]pyrazin-5-amine]	–	–	–	0.023 µM	0.067 µM	> 44.4 µM
C[C@]12CC[C@](C)(C(N)=N[C@]1(C)c1cc(Nc3ncc(F)c4cc(Cl)cnc34)ccc1F)S2(=O)=O [Example 50, N-(3-((1S,2R,5R)-4-amino-1,2,5-trimethyl-8,8-dioxido-8-thia-3-azabicyclo[3.2.1]oct-3-en-2-yl)-4-fluorophenyl)-3-chloro-5-fluoro-1,7-naphthyridin-8-amine]	–	–	–	0.004 µM	0.28 µM	12 µM
Cc1cc(Cl)cnc1C(=O)Nc1ccc(F)c([C@@]2(C)N=C(N)[C@@]3(C)CCC[C@]2(C)S3(=O)=O)c1 [Example 11, N-(3-((1S,2R,5R)-4-Amino-1,2,5-trimethyl-9,9-dioxido-9-thia-3-azabicyclo[3.3.1]non-3-en-2-yl)-4-fluorophenyl)-5-chloro-3-methylpicolinamide]	0.006 µM	0.031 µM	51.5 µM	–	–	–
COc1cnc(C(=O)Nc2ccc(F)c([C@@]3(CF)N=C(N)[C@@]4(C)CC[C@@H]3S4(=O)=O)c2)cn1 (single isomer, unassigned) [Example 120]	–	–	–	0.049 µM	0.088 µM	> 400 µM
Cc1cc(Cl)cnc1C(=O)Nc1ccc(F)c([C@@]2(CF)N=C(N)[C@]3(C)CC[C@H]2S3(=O)=O)c1 [Example 72, N-(3-((1R,2S,5S)-4-amino-2-(fluoromethyl)-5-methyl-8,8-dioxido-8-thia-3-azabicyclo[3.2.1]oct-3-en-2-yl)-4-fluorophenyl)-5-chloro-3-methyl-2-pyridinecarboxamide]	–	–	–	0.024 µM	0.111 µM	> 400 µM
C[C@]1(c2cc(Nc3nccc4nc(OCC5CC5)cnc34)ccc2F)N=C(N)[C@@]2(C)CC[C@@H]1S2(=O)=O [Example 68, N-(3-((1S,2R,5R)-4-amino-2,5-dimethyl-8,8-dioxido-8-thia-3-azabicyclo[3.2.1]oct-3-en-2-yl)-4-fluorophenyl)-2-(cyclopropylmethoxy)pyrido[3,4-b]pyrazin-5-amine]	–	–	–	0.005 µM	0.033 µM	> 400 µM
COc1cnc(C(=O)Nc2ccc(F)c([C@@]3(CF)N=C(N)[C@]4(C)CC[C@H]3S4(=O)=O)c2)cn1 [Example 75, N-(3-((1R,2S,5S)-4-amino-2-(fluoromethyl)-5-methyl-8,8-dioxido-8-thia-3-azabicyclo[3.2.1]oct-3-en-2-yl)-4-fluorophenyl)-5-methoxy-2-pyrazinecarboxamide]	–	–	–	0.097 µM	0.095 µM	> 400 µM

Other lines, results leading:

IC50 (BACE1; [2])	IC50 [1, 3]	IC50 (Cathepsin D (Cat D))	IC50 (BACE1; [4])	IC50 [1, 5]	IC50 (Cathepsin D (Cat D); average IC50, first procedure)	SMILES
0.007 µM	0.149 µM	19 µM	–	–	–	Cc1cc(OC(F)F)cnc1C(=O)Nc1ccc(F)c([C@@]2(C)N=C(N)[C@@]3(C)CCC[C@]2(F)S3(=O)=O)c1 [Example 9, N-(3-((1S,2R,5R)-4-Amino-1-fluoro-2,5-dimethyl-9,9-dioxido-9-thia-3-azabicyclo[3.3.1]non-3-en-2-yl)-4-fluorophenyl)-5-(difluoromethoxy)-3-methylpicolinamide]
0.007 µM	0.02 µM	270 µM	–	–	–	Cc1cc(Cl)cnc1C(=O)Nc1ccc(F)c([C@@]2(C)N=C(N)[C@]3(C)CCC[C@H]2S3(=O)=O)c1 [Example 4, N-(3-((1R,2R,5S)-4-Amino-2,5-dimethyl-9,9-dioxido-9-thia-3-azabicyclo[3.3.1]non-3-en-2-yl)-4-fluorophenyl)-5-chloro-3-methylpicolinamide]
–	–	–	0.002 µM	0.001 µM	> 400 µM	Cn1ccc(COc2cnc3c(Nc4ccc(F)c([C@@]5(C)N=C(N)[C@@]6(C)CC[C@@H]5S6(=O)=O)c4)nccc3n2)n1 [Example 147, N-(3-((1S,2R,5R)-4-amino-2,5-dimethyl-8,8-dioxido-8-thia-3-azabicyclo[3.2.1]oct-3-en-2-yl)-4-fluorophenyl)-2-((1-methyl-1H-pyrazol-3-yl)methoxy)pyrido[3,4-b]pyrazin-5-amine]
–	–	–	0.13 µM	0.083 µM	1620 µM	COc1ccc(C(=O)Nc2ccc(F)c([C@@]3(C)N=C(N)[C@@]4(C)CC[C@@H]3S4(=O)=O)c2)c(F)c1 [Example 123, N-(3-((1S,2R,5R)-4-amino-2,5-dimethyl-8,8-dioxido-8-thia-3-azabicyclo[3.2.1]oct-3-en-2-yl)-4-fluorophenyl)-2-fluoro-4-methoxybenzamide]
–	–	–	0.026 µM	0.012 µM	1850 µM	CCc1ccc(C(=O)Nc2ccc(F)c([C@@]3(C)N=C(N)[C@@]4(CF)CC[C@@H]3S4(=O)=O)c2)nc1 [Example 101, N-(3-((1S,2R,5R)-4-amino-5-(fluoromethyl)-2-methyl-8,8-dioxido-8-thia-3-azabicyclo[3.2.1]oct-3-en-2-yl)-4-fluorophenyl)-5-ethyl-2-pyridinecarboxamide]
0.003 µM	0.004 µM	105 µM	–	–	–	Cc1cc(OC(F)F)cnc1C(=O)Nc1ccc(F)c([C@@]2(C)N=C(N)[C@@]3(C)CCC[C@@H]2S3(=O)=O)c1 [Example 5, N-(3-((1S,2R,5R)-4-Amino-2,5-dimethyl-9,9-dioxido-9-thia-3-azabicyclo[3.3.1]non-3-en-2-yl)-4-fluorophenyl)-5-(difluoromethoxy)-3-methylpicolinamide]
0.02 µM	0.016 µM	85.2 µM	–	–	–	COc1cnc(C(=O)Nc2ccc(F)c([C@@]3(C)N=C(N)[C@]4(C)CCC[C@@]3(C)S4(=O)=O)c2)cn1 [Example 16, N-(3-((1R,2R,5S)-4-Amino-1,2,5-trimethyl-9,9-dioxido-9-thia-3-azabicyclo[3.3.1]non-3-en-2-yl)-4-fluorophenyl)-5-methoxypyrazine-2-carboxamide]
–	–	–	0.007 µM	0.003 µM	603 µM	CC#CCOc1cnc(C(=O)Nc2ccc(F)c([C@@]3(C)N=C(N)[C@]4(CF)CC[C@H]3S4(=O)=O)c2)cn1 [Example 95, N-(3-((1R,2R,5S)-4-amino-5-(fluoromethyl)-2-methyl-8,8-dioxido-8-thia-3-azabicyclo[3.2.1]oct-3-en-2-yl)-4-fluorophenyl)-5-(2-butyn-1-yloxy)-2-pyrazinecarboxamide]
